Measured values reported in patent publication US12180139B2, “Method for preparing aminoalkanoic acid derivative containing biphenyl group” (AMTIXBIO CO., LTD., priority 2019, dated 2024).

Experiments:
MRSA = test: Antibacterial MIC test (CLSI); assay type: cell-based, Methicillin-resistant Staphylococcus aureus; settings: MHB liquid medium, 37° C., 24 hours
Experimental: (§1) The MIC test was conducted in accordance CLSI guidelines. […] As a positive control, Nofloxacin and Vancomycin were used.

C. glabrata [1] = settings: RPMI1640 broth, 35° C., 48 hours, visual reading; expressed as a range value
Experimental: (§3) An in vitro antifungal susceptibility test was performed in accordance with the US Clinical and Laboratory Standards Institute (CLSI) guidelines to measure the degree of antifungal activity of the compounds synthesized in the Preparation Examples against opportunistic pathogenic fungi. […] The MIC value (μg/ ? ) is expressed as a range value. Specifically, Candida species and Cryptococcus neoformans were incubated in a Sabouraud dextrose agar (SDA) (Sigma-Aldrich) solid medium for 24 and 48 hours, respectively to obtain single colonies. The obtained single colonies were suspended in 0.85% physiological saline to prepare fungal cell suspension (1 to 5×10^6 cells/ ? ). Fungal cells 2000-fold diluted in RPMI1640 broth (Sigma-Aldrich) were seeded on 96-well plates (5×10^2 to 2.5×10^3 cells/ ? , 195 ? /well). Serial two-fold dilutions (128, 64, 32, 16, 8, 4, 2, 1, and 0.5 μg/ ? ) of compounds were prepared by diluting the compounds synthesized according to the above preparation examples. Then, 5 ? from each dilution was added to the well of the 96-well plate containing fungal cell suspension to give a final suspension of 200 ? per well. […] As a positive control, amphotericin B (AMB), which is highly toxic to the human body but is known as a representative antifungal agent, was used.

C. albicans = settings: RPMI1640 broth, 35° C., 48 hours, visual reading; expressed as a range value
interleukin 6 (IL-6) = settings: RAW264.7 cells, compound 8 μg/mL 1 hour, then LPS 1 μg/mL 24 hours; relative to LPS without compound
Experimental: The anti-inflammatory effects of the compounds of the present invention were evaluated using RAW264.7 cells which were stimulated to secrete interleukin 6 (IL-6). Specifically, RAW264.7 cells (obtained from Korean Cell Line Bank), mouse macrophages, were inoculated into a 12-well plate at 5×10^5 cells/well and incubated at 37° C. for 16 to 24 hours. The compounds of the present invention were added to the cell culture medium containing RAW264.7 cells incubated as above at a final concentration of 0 or 8 μg/ ? , and then incubated at 37° C. for 1 hour. Next, lipopolysaccharide (LPS, Sigma-Aldrich, USA) was further added to the medium at a final concentration of 1 μg/ ? , and the medium was incubated at 37° C. for 24 hours to induce IL-6 expression. Thereafter, IL-6 levels produced by the RAW264.7 cells were measured using an ELISA kit (Komabiotech Inc. Korea) according to the manufacturer's instructions. In Table 9, IL6 levels were expressed as a relative percentage (%) between LPS-induced IL6 levels after the treatment with the compound of the present invention and LPS-induced IL6 levels without the treatment of the compound of the present invention.

S. aureus (+) = settings: MHB liquid medium, 37° C., 24 hours
S. epidermidis (+) = settings: MHB liquid medium, 37° C., 24 hours
C. neoformans [2] = settings: RPMI1640 broth, 35° C., 72 hours, visual reading; expressed as a range value
Experimental: as §3

E. coli (−) = test: Antibacterial MIC test (CLSI); assay type: cell-based; settings: MHB liquid medium, 37° C., 24 hours
Experimental: as §1

B. coagulans (+) = test: Antibacterial MIC test (CLSI); assay type: cell-based; settings: MHB liquid medium, 37° C., 24 hours
Experimental: as §1

L. monocytogenes (+) = test: Antibacterial MIC test (CLSI); assay type: cell-based; settings: MHB liquid medium, 37° C., 24 hours
Experimental: as §1

B. subtilis (+) = test: Antibacterial MIC test (CLSI); assay type: cell-based; settings: MHB liquid medium, 37° C., 24 hours
Experimental: as §1

P. acnes (+) = test: Antibacterial MIC test (CLSI); assay type: cell-based; settings: MHB liquid medium, 37° C., 24 hours
Experimental: as §1

M. luteus (+) = test: Antibacterial MIC test (CLSI); assay type: cell-based; settings: MHB liquid medium, 37° C., 24 hours
Experimental: as §1

B. cereus (+) = test: Antibacterial MIC test (CLSI); assay type: cell-based; settings: MHB liquid medium, 37° C., 24 hours
Experimental: as §1

S. aureus enterica (−) = test: Antibacterial MIC test (CLSI); assay type: cell-based; settings: MHB liquid medium, 37° C., 24 hours
Experimental: as §1

A. fumigatus [3] = settings: visual reading; expressed as a range value
Experimental: as §3

Candida albicans = settings: 50 or 100 μg/mL for 30 minutes; versus Efinaconazole, Tavaborole, Terbinafine, Ciclopirox
Experimental: To evaluate fast-acting effects of Compound 74, the growth of Candida albicans was studied by treating Candida albicans with Compound 74 or commercially available drug of Efinaconazole, Tavaborole, Terbinafine, or Ciclopirox at the same concentration for the same period of time. Specifically, Candida albicans were prepared at a concentration of 2.5×10^3 cfu/ ? and aliquoted at 195 ? /well into 96-well plates. Subsequently, Candida albicans cells in 96-well plate were treated with Compound 74 or each of the commercially available comparative drugs (50 μg/ ? or 100 μg/ ? ) for 30 minutes, respectively. Next, Compound 74 treated fungal cells were seeded on YPD media (Sigma-Aldrich), and the number of single colonies grown was counted.

Candida albicans biofilm = settings: 4, 8, 16 and 32 μg/mL, 24 hours after treatment; versus Caspofungin, Amphotericin B, Efinaconazole
T. rubrum = settings: 0.5- to 16-fold MIC, 0 to 120 hours; versus Efinaconazole, Amorolfine, Terbinafine, Ciclopirox, Amphotericin B
Experimental: Specifically, T. rubrum cells (6×10^3 cfu/ ? ) were prepared and aliquoted at 195 ? /well into 96-well plates.

A. fumigatus [4] = system: A. fumigatus
Experimental: (§2) Fungal cells were spread on YPD solid media (Sigma-Aldrich) and then aliquoted into the wells of the 96-well plates (2.5×10^3 microconidia/ ? for T. rubrum and T. mentagrophytes species or was 2.5×10^3 cfu/ ? for Candida albicans, Candida glabrata and Cryptococcus neoformans species, 195 ? /well). […] The compound-treated fungal cells were incubated in a 35° C. incubator for 48 hours (Candida species) and for 72 hours (C. neoformans and Trichophyton species), respectively.

T. rubrum (KCCM60443) = settings: 35° C., 72 hours
Experimental: as §2

C. glabrata [5] = settings: 35° C., 48 hours; n = 30
Experimental: as §2

T. rubrum (KCCM60450) = settings: 35° C., 72 hours
Experimental: as §2

C. tropicalis = settings: 35° C., 48 hours
Experimental: as §2

[6] = system: T. mentagrophytes (KCCM60449); settings: 35° C., 72 hours
Experimental: as §2

C. neoformans [7] = settings: 35° C., 72 hours; n = 10
Experimental: as §2

[8] = system: C. albicans ATCC90028 (WT); settings: 35° C., 48 hours; n = 30
Experimental: as §2

[9] = system: C. albicans 12-99 (Mutant); settings: 35° C., 48 hours
Experimental: as §2

| Structure (SMILES) | MIC MRSA (MRSA) [µg/mL] | MIC (μg/mL) C. glabrata (C. glabrata [1]) | MIC (μg/mL) C. albicans (C. albicans) | Relative IL-6 levels (%) (interleukin 6 (IL-6)) | MIC S. aureus (+) (S. aureus (+)) [µg/mL] | MIC S. epidermidis (+) (S. epidermidis (+)) [µg/mL] | MIC (μg/mL) C. neoformans (C. neoformans [2]) | MIC E. coli (−) (E. coli (−)) [µg/mL] | MIC B. coagulans (+) (B. coagulans (+)) [µg/mL] | MIC L. monocytogenes (+) (L. monocytogenes (+)) [µg/mL] | MIC B. subtilis (+) (B. subtilis (+)) [µg/mL] | MIC P. acnes (+) (P. acnes (+)) [µg/mL] | MIC M. luteus (+) (M. luteus (+)) [µg/mL] | MIC B. cereus (+) (B. cereus (+)) [µg/mL] | MIC S. aureus enterica (−) (S. aureus enterica (−)) [µg/mL] | MIC (μg/mL) A. fumigatus (A. fumigatus [3]) | also measured |
| --- | --- | --- | --- | --- | --- | --- | --- | --- | --- | --- | --- | --- | --- | --- | --- | --- | --- |
| CCC(N)C(=O)NCCc1ccc(-c2ccc(C(F)(F)F)cc2)cc1.Cl (racemic) [Compound 76, (R)/(S)-2-amino-N-(2-(4′-(trifluoromethyl)-[1,1′-biphenyl]-4-yl)ethyl)butanamide hydrochloride] | 32 | 8~32 μg/mL | 16~64 μg/mL | 9.58 | 32 | 16 | 8~32 μg/mL | 16 | <4 | 16 | 16 | 16 | 16 | 64 | 32 | 8~32 μg/mL | – |
| CCCC(N)C(=O)NCCc1ccc(-c2ccc(Cl)c(Cl)c2)cc1.Cl (racemic) [Compound 74, (R)/(S)-2-amino-N-(2-(3′,4′-dichloro-[1,1′-biphenyl]-4-yl)ethyl)pentanamide hydrochloride] | 8 | 0.5~4 μg/mL | 0.5~4 μg/mL | – | 8 | 8 | 0.5~4 μg/mL | 32 | 2 | 8 | 8 | 8 | 8 | 16 | >32 | 0.5~4 μg/mL | fast-acting effects (number of single colonies grown, FIG. 1) (Candida albicans): excellent fast-acting effects; biofilm disruption (growth of Candida albicans, FIG. 3) (Candida albicans biofilm): remarkably excellent growth inhibitory effects on Candida albicans through biofilm disruption; fungicidal effects (number of single colonies grown, FIG. 2) (T. rubrum): exhibited fungicidal effects at the MIC concentration; MIC A. fumigatus (A. fumigatus [4]): 2~8 μg/mL; MIC T. rubrum (KCCM60443) (T. rubrum (KCCM60443)): 1~4 μg/mL; MIC C. glabrata (C. glabrata [5]): 2~4 μg/mL; MIC T. rubrum (KCCM60450) (T. rubrum (KCCM60450)): 2~4 μg/mL; MIC C. tropicalis (C. tropicalis): 2~4 μg/mL; MIC T. mentagrophytes (KCCM60449) [6]: 2~8 μg/mL; MIC C. neoformans (C. neoformans [7]): 2~4 μg/mL; MIC C. albicans ATCC90028 (WT) [8]: 2~4 μg/mL; MIC C. albicans 12-99 (Mutant) [9]: 2~8 μg/mL |
| CCCCC(N)C(=O)NCc1ccc(-c2ccc(OC(F)(F)F)cc2)cc1.Cl (racemic) [Compound 50, (R)/(S)-2-amino-N-((4′-(trifluoromethoxy)-[1,1′-biphenyl]-4-yl)methyl)hexanamide hydrochloride] | – | 4~16 μg/mL | 4~16 μg/mL | 68 | – | – | 4~16 μg/mL | – | – | – | – | – | – | – | – | 4~16 μg/mL | – |
| CCCC(NC)C(=O)NCCc1ccc(-c2ccc(C(F)(F)F)cc2)cc1.Cl (racemic) [Compound 87, (R)/(S)-2-(methylamino)-N-(2-(4′-(trifluoromethyl)-[1,1′-biphenyl]-4-yl)ethyl)pentanamide hydrochloride] | – | 4~16 μg/mL | 4~16 μg/mL | 24 | – | – | 4~16 μg/mL | – | – | – | – | – | – | – | – | 4~16 μg/mL | – |
| CCCC(C(=O)Nc1ccc(-c2ccc(Cl)c(Cl)c2)cc1)N(C)C (racemic) [Compound 36, (R)/(S)-N-(3′,4′-dichloro-[1,1′-biphenyl]-4-yl)-2-(dimethylamino)pentanamide] | – | 4~16 μg/mL | 4~16 μg/mL | 9 | – | – | 2~8 μg/mL | – | – | – | – | – | – | – | – | 4~16 μg/mL | – |
